Experimental data published in PubChem BioAssay AID330 (DTP/NCI, 2004).
Several values for one entry are separate records, joined by “and”; a condition that tells them apart may be missing. Equal entries are not always repeated. Inconclusive results and toxic doses are left out. Rule for the calls: active = survival T/C of 150% or more; inactive = T/C below 125% in these data.

Tested on: P388 leukemia ip, CD2F1 mice, survival T/C
Assay: NCI In Vivo Anticancer Drug Screen. Data for tumor model P388 Leukemia (intraperitoneal) in CD2F1 (CDF1) mice
Details: endpoint: median survival time, higher = longer survival
How it was run: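 Mice carrying the transplanted tumor received test compound or vehicle. Survival was recorded in each group, and the value is the treated-group measurement divided by that of the vehicle-treated control group.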

[1] = dose: 50.0 mg/kg/injection, schedule: Q01DX009 (ip), vehicle: Klucel (hydroxypropylcellulose) (HPC)
[2] = dose: 100.0 mg/kg/injection, schedule: Q01DX009 (ip), vehicle: Klucel (hydroxypropylcellulose) (HPC)
[3] = dose: 200.0 mg/kg/injection, schedule: Q01DX009 (ip), vehicle: Klucel (hydroxypropylcellulose) (HPC)
[4] = dose: 50.0 mg/kg/injection, schedule: Q01DX005 (ip), vehicle: Klucel (hydroxypropylcellulose) (HPC)
[5] = dose: 100.0 mg/kg/injection, schedule: Q01DX005 (ip), vehicle: Klucel (hydroxypropylcellulose) (HPC)
[6] = dose: 200.0 mg/kg/injection, schedule: Q01DX005 (ip), vehicle: Klucel (hydroxypropylcellulose) (HPC)
[7] = dose: 50.0 mg/kg/injection, schedule: Q01DX005 (ip), vehicle: saline
[8] = dose: 50.0 mg/kg/injection, schedule: Q01DX009 (ip), vehicle: saline with Tween-80
[9] = dose: 100.0 mg/kg/injection, schedule: Q01DX009 (ip), vehicle: saline with Tween-80
[10] = dose: 200.0 mg/kg/injection, schedule: Q01DX009 (ip), vehicle: saline with Tween-80
[11] = dose: 50.0 mg/kg/injection, schedule: Q01DX005 (ip), vehicle: saline with Tween-80
[12] = dose: 100.0 mg/kg/injection, schedule: Q01DX005 (ip), vehicle: saline with Tween-80
[13] = dose: 200.0 mg/kg/injection, schedule: Q01DX005 (ip), vehicle: saline with Tween-80

Measured: T/C

O=C1CCSC(=S)N1C(=O)c1ccccc1
inactive: [1] 104 % of control | [2] 104 % of control | [3] 109 % of control

Cc1ccc(S(=O)(=O)N(CCCc2ccccc2)S(=O)(=O)c2ccc(C)cc2)cc1
inactive: [1] 96 % of control | [2] 97 % of control | [3] 100 % of control

CCCCCCCCCCCCCCSCCCCCCCCCCCCCC
inactive: dose: 25.0 mg/kg/injection, schedule: Q01DX005 (ip), vehicle: Klucel (hydroxypropylcellulose) (HPC) 100 % of control | [4] 99 % of control | [5] 92 % of control | [6] 92 % of control

CCN(CC)CCCN1CC2CC=CCC2C1 (stereo unspecified)
inactive: [7] 98 % of control | dose: 100.0 mg/kg/injection, schedule: Q01DX005 (ip), vehicle: saline 100 % of control | dose: 200.0 mg/kg/injection, schedule: Q01DX005 (ip), vehicle: saline 105 % of control

CC1C=Cc2ccccc2NC1C (stereo unspecified)
inactive: dose: 60.0 mg/kg/injection, schedule: Q01DX005 (ip), vehicle: saline with Tween-80 101 % of control | dose: 120.0 mg/kg/injection, schedule: Q01DX005 (ip), vehicle: saline with Tween-80 102 % of control | dose: 240.0 mg/kg/injection, schedule: Q01DX005 (ip), vehicle: saline with Tween-80 97 % of control

CSc1nc(Cl)c(Cl)cc1Cl
inactive: [8] 100 % of control | [9] 97 % of control | [10] 91 % of control

O=C(/C=C/c1ccccc1)O[C@@H]1CC2CC1C[C@H]2c1cnc[nH]1 (stereo partly specified)
inactive: dose: 25.0 mg/kg/injection, schedule: Q04DX002 (ip), vehicle: saline with Tween-80 100 % of control | dose: 50.0 mg/kg/injection, schedule: Q04DX002 (ip), vehicle: saline with Tween-80 101 % of control | dose: 100.0 mg/kg/injection, schedule: Q04DX002 (ip), vehicle: saline with Tween-80 92 % of control

CCCCOCC(=O)O
inactive: dose: 25.0 mg/kg/injection, schedule: Q01DX009 (ip), vehicle: saline 94 % of control | dose: 50.0 mg/kg/injection, schedule: Q01DX009 (ip), vehicle: saline 97 % of control | dose: 100.0 mg/kg/injection, schedule: Q01DX009 (ip), vehicle: saline 93 % of control

CC1=CN2C3=NCCN3C3=[N+](C)CCN3C2C=C1 (stereo unspecified)
inactive: dose: 12.5 mg/kg/injection, schedule: Q01DX005 (ip), vehicle: saline 104 % of control | dose: 25.0 mg/kg/injection, schedule: Q01DX005 (ip), vehicle: saline 101 % of control | [7] 100 % of control and 112 % of control

COc1ccc(CSCC(NC(=O)OC(C)(C)C)C(=O)O)cc1 (stereo unspecified)
inactive: [4] 105 % of control | [5] 97 % of control | [6] 100 % of control

CC(=O)C1(C)CCOC1=O (stereo unspecified)
inactive: [11] 100 % of control | [12] 100 % of control | [13] 109 % of control

CCCCC(=O)CCCCCCCCC(=O)OCC
inactive: dose: 100.0 mg/kg/injection, schedule: Q04DX003 (ip), vehicle: Klucel (hydroxypropylcellulose) (HPC) 102 % of control | dose: 200.0 mg/kg/injection, schedule: Q04DX003 (ip), vehicle: Klucel (hydroxypropylcellulose) (HPC) 103 % of control | dose: 400.0 mg/kg/injection, schedule: Q04DX003 (ip), vehicle: Klucel (hydroxypropylcellulose) (HPC) 95 % of control

O=C(Nc1cc(Cl)ccc1Cl)O/N=C/c1ccncc1
inactive: [8] 93 % of control | [9] 94 % of control | [10] 94 % of control

CCN(CC)C1C2=C(CCCC2)OS(=O)(=O)C1c1ccccc1 (stereo unspecified)
inactive: dose: 60.0 mg/kg/injection, schedule: Q01DX005 (ip), vehicle: Klucel (hydroxypropylcellulose) (HPC) 103 % of control | dose: 120.0 mg/kg/injection, schedule: Q01DX005 (ip), vehicle: Klucel (hydroxypropylcellulose) (HPC) 97 % of control | dose: 240.0 mg/kg/injection, schedule: Q01DX005 (ip), vehicle: Klucel (hydroxypropylcellulose) (HPC) 95 % of control

CC(=O)OC1CCC2(C)C(=O)CCC3C=C(C(=O)C3CSc3ccc(Br)cc3)C(O)CC2C1(C)C (stereo unspecified)
inactive: dose: 11.25 mg/kg/injection, schedule: Q01DX009 (ip), vehicle: Klucel (hydroxypropylcellulose) (HPC) 95 % of control | dose: 22.5 mg/kg/injection, schedule: Q01DX009 (ip), vehicle: Klucel (hydroxypropylcellulose) (HPC) 100 % of control | dose: 45.0 mg/kg/injection, schedule: Q01DX009 (ip), vehicle: Klucel (hydroxypropylcellulose) (HPC) 94 % of control | dose: 90.0 mg/kg/injection, schedule: Q01DX009 (ip), vehicle: Klucel (hydroxypropylcellulose) (HPC) 100 % of control

OC1C(c2ccccc2)=C(c2ccccc2)C2(c3ccccc3)CC12c1ccccc1 (stereo unspecified)
inactive: dose: 12.5 mg/kg/injection, schedule: Q04DX003 (ip), vehicle: saline with Tween-80 93 % of control | dose: 25.0 mg/kg/injection, schedule: Q04DX003 (ip), vehicle: saline with Tween-80 117 % of control | dose: 50.0 mg/kg/injection, schedule: Q04DX003 (ip), vehicle: saline with Tween-80 88 % of control

COc1cccc(CC#N)c1O
inactive: dose: 25.0 mg/kg/injection, schedule: Q01DX009 (ip), vehicle: Klucel (hydroxypropylcellulose) (HPC) 105 % of control | [1] 100 % of control | [2] 106 % of control

O=C(O)C1CCC(=O)N1Cc1ccccc1 (stereo unspecified)
inactive: [1] 89 % of control | [2] 100 % of control | [3] 107 % of control

c1ccc(CNc2nnc3nc(-c4ccccc4)c(-c4ccccc4)nn23)cc1
inactive: [11] 117 % of control | [12] 114 % of control | [13] 105 % of control

CC(NC(=O)c1cccc2c1Oc1ccccc1S2)C(=O)O (stereo unspecified)
inactive: dose: 50.0 mg/kg/injection, schedule: Q04DX002 (ip), vehicle: saline 104 % of control | dose: 100.0 mg/kg/injection, schedule: Q04DX002 (ip), vehicle: saline 98 % of control | dose: 200.0 mg/kg/injection, schedule: Q04DX002 (ip), vehicle: saline with Tween-80 93 % of control | dose: 200.0 mg/kg/injection, schedule: Q04DX002 (ip), vehicle: saline 99 % of control

CN(C)CCCNc1c2ccccc2nc2c1c(=O)n(C)c(=O)n2C
inactive: dose: 60.0 mg/kg/injection, schedule: Q01DX005 (ip), vehicle: saline 101 % of control | dose: 120.0 mg/kg/injection, schedule: Q01DX005 (ip), vehicle: saline 107 % of control

[O-][n+]1nn(CC(O)CCl)c2ccccc21 (stereo unspecified)
inactive: [11] 102 % of control | [12] 102 % of control | dose: 100.0 mg/kg/injection, schedule: Q04DX003 (ip), vehicle: saline with Tween-80 103 % of control | [13] 100 % of control | dose: 200.0 mg/kg/injection, schedule: Q04DX003 (ip), vehicle: saline with Tween-80 98 % of control | dose: 400.0 mg/kg/injection, schedule: Q04DX003 (ip), vehicle: saline with Tween-80 93 % of control
